This note sets out measurements from patent US20140051679A1, “KINASE INHIBITORS AND METHOD OF TREATING CANCER WITH SAME” (UNIVERISTY HEALTH NETWORKS, priority 2011, published 2014).

Test [1] concerns the target T1, human TTK (Homo sapiens, UniProt P33981).
T1 construct: amino terminal GST fusion of full length human TTK; purchased Invitrogen
T1 sequence (P33981 1-857): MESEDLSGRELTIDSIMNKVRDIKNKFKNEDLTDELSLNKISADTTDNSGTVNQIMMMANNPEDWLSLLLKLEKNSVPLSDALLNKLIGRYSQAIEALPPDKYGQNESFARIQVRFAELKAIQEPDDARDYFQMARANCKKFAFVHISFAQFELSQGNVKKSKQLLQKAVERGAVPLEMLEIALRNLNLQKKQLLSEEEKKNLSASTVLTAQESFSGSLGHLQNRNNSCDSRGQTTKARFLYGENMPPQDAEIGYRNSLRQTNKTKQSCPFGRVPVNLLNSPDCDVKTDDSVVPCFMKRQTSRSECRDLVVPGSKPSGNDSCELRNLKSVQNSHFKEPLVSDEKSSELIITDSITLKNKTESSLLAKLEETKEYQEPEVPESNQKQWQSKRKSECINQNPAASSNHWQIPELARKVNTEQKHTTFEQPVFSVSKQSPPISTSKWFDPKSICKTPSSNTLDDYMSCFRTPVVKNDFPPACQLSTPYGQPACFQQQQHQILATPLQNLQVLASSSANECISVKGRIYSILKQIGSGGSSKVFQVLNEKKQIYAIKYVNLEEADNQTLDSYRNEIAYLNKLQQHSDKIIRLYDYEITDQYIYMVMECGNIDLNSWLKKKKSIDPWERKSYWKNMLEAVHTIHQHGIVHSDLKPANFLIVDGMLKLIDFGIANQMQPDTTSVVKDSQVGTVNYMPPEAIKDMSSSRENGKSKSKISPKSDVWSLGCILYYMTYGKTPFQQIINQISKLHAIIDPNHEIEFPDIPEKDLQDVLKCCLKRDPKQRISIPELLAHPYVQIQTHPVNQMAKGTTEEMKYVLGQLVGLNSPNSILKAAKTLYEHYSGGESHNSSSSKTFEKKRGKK
The test can be described thus: TTK inhibition assay (indirect ELISA). The class given is biochemical. The settings on record: GST-TTK 0.68 nM, 16 μM ATP; read-out: IC50 Ranges TTK. (In an ELISA, binding on a coated surface is turned into a signal by an enzyme label.)

The target in test [2] is T2, human PLK4 (Homo sapiens, UniProt O00444).
T2 construct: amino terminal GST fusion of residues 1-391 of human PLK4; made in house; host or cells: E. coli
T2 sequence (O00444 1-391): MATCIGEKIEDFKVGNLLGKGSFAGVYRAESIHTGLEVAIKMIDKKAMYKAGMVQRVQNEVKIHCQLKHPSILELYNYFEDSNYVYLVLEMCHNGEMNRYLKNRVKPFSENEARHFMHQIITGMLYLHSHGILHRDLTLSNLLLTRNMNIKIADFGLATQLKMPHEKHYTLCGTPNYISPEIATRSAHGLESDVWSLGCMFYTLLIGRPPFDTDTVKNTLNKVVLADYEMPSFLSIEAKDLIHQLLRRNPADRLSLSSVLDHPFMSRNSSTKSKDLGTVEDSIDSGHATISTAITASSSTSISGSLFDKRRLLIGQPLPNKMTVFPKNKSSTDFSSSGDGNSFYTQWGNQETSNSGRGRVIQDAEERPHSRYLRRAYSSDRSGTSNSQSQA
The test can be described thus: PLK4 inhibition assay (indirect ELISA). The class given is biochemical. Particulars: GST-PLK4 4 nM, 15 μM ATP; read-out: IC50 Ranges PLK4. An outline of the steps: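 Dephosphorylated GST-tagged human PLK4 (residues 1-391, E. coli), 4 nM, preincubated 15 min with compound, then reacted 30 min with 15 μM ATP on MBP-coated plates (50 mM HEPES pH 7.5, 10 mM MgCl2, 0.01% Brij 35). Phospho-MBP detected by antibody ELISA at 450 nm. Tested at 10 μM or 10-point titrations; IC50 from 4-parameter logistic fit.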

Test [3] deals with T3, Aurora B (Homo sapiens, UniProt Q96GD4).
T3 construct: purchased Invitrogen PV3970
T3 sequence (Q96GD4 whole entry): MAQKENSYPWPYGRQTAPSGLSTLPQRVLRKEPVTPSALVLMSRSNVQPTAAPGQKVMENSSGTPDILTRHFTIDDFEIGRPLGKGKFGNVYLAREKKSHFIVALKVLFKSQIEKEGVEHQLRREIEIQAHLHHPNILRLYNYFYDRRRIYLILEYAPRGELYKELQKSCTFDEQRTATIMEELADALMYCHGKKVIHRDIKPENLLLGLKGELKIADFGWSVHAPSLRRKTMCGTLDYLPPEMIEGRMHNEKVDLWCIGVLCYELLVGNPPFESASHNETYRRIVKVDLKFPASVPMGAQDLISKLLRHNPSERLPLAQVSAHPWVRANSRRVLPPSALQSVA
The test can be described thus: Aurora B inhibition assay (Z-Lyte). Particulars: 28 nM Aurora B, 128 μM ATP; read-out: IC50 Ranges Aurora B. In kind it is biochemical. Here is the method:
Aurora B inhibition was determined using the Z-Lyte assay kit from Invitrogen. The assay was performed using the recommended manufacturer's instructions with 128 μM ATP and 28 nM Aurora B (Invitrogen cat #PV3970). The % inhibition values were determined according to the manufacturer's directions and IC50 values were obtained using a non-linear 4 point logistic curve fit (XLfit4, IDBS)

Test [4] concerns MDA-MB-231 breast cancer cells. The test can be described thus: Cell growth inhibition, Sulforhodamine B assay, MDA-MB-231. The class given is cell-based. Particulars: Homo sapiens, 120 h, 5 days culture, SRB assay, read-out: Cell Line GI50 Range MDA-MB-231. For orientation: In SRB staining, fixed cells bind dye roughly in proportion to their protein.
Description: (§1) Breast cancer cells (MDA-MB-231, MDA-MB-468), colon cancer cells (HCT116, HT29) and ovarian cancer cells (PA-1, OVCAR-3) were seeded (1000 to 4000 in 80 μl per well depending on the cell growth rate) into 96 well plates 24 hours before compound overlay. Compounds were prepared as 10 mM stock solutions in 100% DMSO which were diluted with DMEM (Dulbecco's Modified Eagle's Medium) cell growth Medium (Invitrogen, Burlington, ON, Canada) containing 10% FBS (Fetal Bovine Serum) to concentrations ranging from 50 nM to 250 μM. Aliquots (20 μl) from each concentration were overlaid to 80 μl of the pre-seeded cells in the 96 well plates to make final concentrations of 10 nM to 50 μM. The cells were cultured for 5 days before the Sulforhodamine B assay (SRB) was performed to determine the compound's cell growth inhibition activity.
(§2) Sulforhodamine B (purchased from Sigma, Oakville, ON, Canada) is a water-soluble dye that binds to the basic amino acids of the cellular proteins. Thus, colorimetric measurement of the bound dye provides an estimate of the total protein mass that is related to the cell number. the cells are fixed in situ by gently aspirating off the culture media and adding 50 μl ice cold 10% Trichloroacetic Acid (TCA) per well and incubate at 4° C. for 30-60 min, The plates are washed with water five times and allowed to air dry for 5 min. Addition of 50 μl 0.4% (w/v) SRB solution in 1% (v/v) acetic acid to each well and incubatation for 30 min at RT completes the staining reaction. Following staining, plates are washed four times with 1% acetic acid to remove unbound dye and then allowed to air dry for 5 min. The stain is solubilized with 100 μl of 10 mM Tris pH 10.5 per well. Absorbance is read at 570 nm.
(§3) The percentage (%) of relative growth inhibition was calculated by comparing to DMSO treated only cells (100%). […] The GI50 was calculated using GraphPad PRISM software (GraphPad Software, Inc., San Diego, Calif., USA).
Test [5] has as its system MDA-MB-468 breast cancer cells. Nature of the test: Cell growth inhibition, Sulforhodamine B assay, MDA-MB-468. The settings on record: Homo sapiens, 120 h, 5 days culture, SRB assay, read-out: Cell Line GI50 Range MDA-MB-468. In kind it is cell-based.
In test [6] the test system is HCT116 colon cancer cells. Nature of the test: Cell growth inhibition, Sulforhodamine B assay, HCT116. Particulars: Homo sapiens, HCT-116, 120 h, 5 days culture, SRB assay, read-out: Cell Line GI50 Range HCT116. The class given is cell-based.
Description: as §1, §2, §3
Test [7] concerns HT29 colon cancer cells. The test can be described thus: Cell growth inhibition, Sulforhodamine B assay, HT29. The settings on record: Homo sapiens, HT-29, 120 h, 5 days culture, SRB assay, read-out: Cell Line GI50 Range HT29. In kind it is cell-based.
Test [8] has as its system OVCAR-3 ovarian cancer cells. The test can be described thus: Cell growth inhibition, Sulforhodamine B assay, OVCAR-3. The settings on record: Homo sapiens, 120 h, 5 days culture, SRB assay, read-out: Cell Line GI50 Range OVCAR-3. The class given is cell-based.
For test [9], the system named is Colon tumor initiating cells (TICs), 12 colon. Nature of the test: Colon tumor-initiating cell growth inhibition (Alamar Blue). In kind it is cell-based. Particulars: 216 h, 9 days, read-out: GI50 range 12 colon. A general note: Alamar Blue is a resazurin reagent that responds to reducing activity.
Excerpt: (§4) Materials and Methods: Non-tissue or tissure cultured treated T-75 flask and 96-well plates were purchased from VWR. Vitamin B-27 supplement, MEM NEAA (minimum essential medium non essential amino acids), sodium pyruvate, L-glutamine, N2 supplement, penicillin-streptomycin and fungizone/amphotericin B were obtained from Invitrogen. Lipid mixture, heparin and EGF were purchased from Sigma; bFGF from BD Biosciences. Colon tumor initiating cells (TICs) were routinely maintained using non-tissue cultured treated T-75 flasks in DMEM:F12 medium containing 0.2XB-27 supplement, 4 ug/ml heparin, 1XMEM NEAA, 1× sodium pyruvate, 1 mM glutamine, 10 pg/ul bFGF, 20 pg/ul EGF, 1×N2 supplement, lipid mixture, penicillin-streptomycin and fungizone/amphotericin B. Ovarian TICs were routinely maintained using tissue cultured treated T-75 flasks in DMEM:F12 medium containing 1XB-27 supplement, 4 ug/ml heparin, 20 pg/ul bFGF, 20 pg/ul EGF and penicillin-streptomycin.
(§5) Compounds described herein were dissolved in DMSO and further diluted in cell culture medium for GI50 determination. Colon TICs were trypsinized and seeded into non-tissue cultured treated 96-well plates with 4,000 cells/well. After 24 h, compound was added into the cell culture at different concentrations, and the final concentration of DMSO was adjusted to 0.1%. Cells were then cultured at 37° C. for 9 days. Ovarian TICs were trypsinized and seeded into tissue cultured treated 96-well plates with 1,000 cells/well. After 24 h, compound was added into the cell culture at different concentrations, and the final concentration of DMSO was adjusted to 0.1%. Cells were then cultured at 37° C. for 6 days. Cell viability was assessed by Alamar Blue assay: 10 ul of Alamar Blue was added into each well. After 4 hours incubation at 37° C., fluorescence was recorded at excitation 544 and emission 590. GI50 (Growth inhibition) was calculated using GraphPad Prism 4.0 software.
For test [10], the system named is Ovarian TICs, 2393A ovarian. Nature of the test: Ovarian tumor-initiating cell growth inhibition (Alamar Blue). Particulars: 144 h, 6 days, read-out: GI50 range 2393A ovarian. The class given is cell-based.
Excerpt: as §4, §5
Test [11] concerns PA-1 ovarian cancer cells. Nature of the test: Cell growth inhibition, Sulforhodamine B assay, PA-1. The class given is cell-based. Particulars: 120 h, 5 days culture, SRB assay, read-out: Cell Line GI50 Range PA-1.

Broadly, the IC50 is the concentration at which inhibition is half-maximal. The GI50 is the concentration giving 50% growth inhibition.

Each structure is given as a SMILES string. Where only a bound is given, the exact number is not on record here.

With `O=C(Nc1ccc2[nH]nc(-c3ccc(OC4CCOCC4)cc3)c2c1)C(c1ccsc1)N1CCCC1` (centres unmarked) [Example A29, 2-(pyrrolidin-1-yl)-N-(3-(4-((tetrahydro-2H-pyran-4-yl)oxy)phenyl)-1H-indazol-5-yl)-2-(thiophen-3-yl)acetamide], the half-maximal inhibitory concentration (IC50) in test [1], in test [2] and in test [3] was not above 5 µM throughout. Also, the GI50 is 5 to 20 µM in test [4]; not above 5 µM in test [5]; not above 5 µM in test [6]; not above 5 µM in test [7]; 5 to 20 µM in test [8]; not above 5 µM in [9]. Also, in test [10], the concentration for 50% growth inhibition (GI50) was not above 5 µM.

`O=C(NC(c1ccsc1)C1CC1)c1ccc2[nH]nc(-c3ccc(N4CCOCC4)cc3)c2c1` (centres unmarked) [Example A35, N-(cyclopropyl(thiophen-3-yl)methyl)-3-(4-morpholinophenyl)-1H-indazole-5-carboxamide]: the IC50 in test [1], in test [2] and in test [3] was not above 5 µM throughout. Moreover, the GI50 in test [4], in [5], in test [6], in [7], in test [8] and in [9] was not above 5 µM throughout. Moreover, in test [10], the 50% growth inhibitory concentration (GI50) is not above 5 µM.

In the case of `O=C(Nc1ccc2[nH]nc(-c3ccc(N4CCOCC4)cc3)c2c1)C(c1ccsc1)N1CCCC1` (centres unmarked) [Example A4, N-(3-(4-morpholinophenyl)-1H-indazol-5-yl)-2-(pyrrolidin-1-yl)-2-(thiophen-3-yl)acetamide], the half-maximal inhibitory concentration (IC50) in [1], in test [2] and in test [3] was not above 5 µM throughout. For the same compound, the GI50 in test [4] was not above 5 µM; in [5], not above 5 µM; in test [6], not above 5 µM; in test [7] it was not above 5 µM; in test [8], 5 to 20 µM; in test [9], not above 5 µM. Also, in test [10], the 50% growth inhibitory concentration (GI50) is not above 5 µM.

With `C[C@H]1CCCN1[C@H](C(=O)Nc1ccc2[nH]nc(-c3ccc(OC4CCN(C)CC4)cc3)c2c1)c1ccsc1` [Example A41, (S)—N-(3-(4-((1-methylpiperidin-4-yl)oxy)phenyl)-1H-indazol-5-yl)-2-((S)-2-methylpyrrolidin-1-yl)-2-(thiophen-3-yl)acetamide], the IC50 in [1], in [2] and in test [3] was not above 5 µM throughout. Besides, the concentration for 50% growth inhibition (GI50) in test [5], in test [6], in test [7], in [8], in test [9] and in test [10] was not above 5 µM in each case.

For the compound `CO[C@@H](C(=O)Nc1ccc2[nH]nc(-c3ccc(OC4CCN(C)CC4)cc3)c2c1)c1ccccc1` [Example A27, (R)-2-methoxy-N-(3-(4-((1-methylpiperidin-4-yl)oxy)phenyl)-1H-indazol-5-yl)-2-phenylacetamide], the IC50 in test [1], in test [2] and in test [3] was not above 5 µM each time. Also, the GI50 in [4] is 5 to 20 µM; in [5], not above 5 µM; in test [6] it was not above 5 µM; in test [7], not above 5 µM; in test [8] it was 5 to 20 µM; in [9], not above 5 µM. Further, the GI50 in [10] was not above 5 µM.

Take `O=C(NC(c1ccccc1)C1CC1)c1ccc2[nH]nc(-c3ccc(N4CCOCC4)cc3)c2c1` (centres unmarked) [Example A12, N-(cyclopropyl(phenyl)methyl)-3-(4-morpholinophenyl)-1H-indazole-5-carboxamide]: the half-inhibitory concentration (IC50) in test [1], in test [2] and in test [3] was not above 5 µM in each case. Also, the concentration for 50% growth inhibition (GI50) in test [5], in test [6], in test [9] and in [10] was not above 5 µM throughout.

For the compound `CCc1cccc(CC)c1NC(=O)Nc1ccc2[nH]nc(-c3ccc(OC4CCN(C)CC4)cc3)c2c1` [Example A46], the 50% inhibitory concentration (IC50) in [1], in test [2] and in [3] was not above 5 µM throughout. In addition, the GI50 in [4], in test [5], in test [6], in test [7], in [8] and in test [9] was not above 5 µM throughout. Also, the GI50 in [10] is not above 5 µM.

On to `CN1CCC(Oc2ccc(-c3n[nH]c4ccc(C(=O)NC(c5ccsc5)C5CC5)cc34)cc2)CC1` (centres unmarked) [Example A33, N-(cyclopropyl(thiophen-3-yl)methyl)-3-(4-((1-methylpiperidin-4-yl)oxy)phenyl)-1H-indazole-5-carboxamide], for which the 50% inhibitory concentration (IC50) in test [1], in [2] and in test [3] was not above 5 µM in each case. Moreover, the concentration for 50% growth inhibition (GI50) in test [4], in [5], in test [6], in [7], in test [8] and in test [9] was not above 5 µM each time. For the same compound, the GI50 in test [10] is not above 5 µM.

With `CN1CCOC(c2ccc(-c3n[nH]c4ccc(C(=O)NC(c5ccccc5)C5CC5)cc34)cc2)C1` (centres unmarked) [Example A139, N-(cyclopropyl(phenyl)methyl)-3-(4-(4-methylmorpholin-2-yl)phenyl)-1H-indazole-5-carboxamide], the IC50 in [1], in test [2] and in [3] was not above 5 µM each time. Further, the concentration for 50% growth inhibition (GI50) in test [4], in [5], in [6], in test [7], in [11] and in test [8] was not above 5 µM in each case.

Turning to `CN1CCC(Nc2ccc(-c3n[nH]c4ccc(NC(=O)C(c5ccsc5)N5CCCC5)cc34)cc2)CC1` (centres unmarked) [Example A25], the IC50 in test [1], in test [2] and in [3] was not above 5 µM throughout. The GI50 in [4], in [5], in test [6], in test [7], in test [8] and in test [9] was not above 5 µM in each case. Besides, the GI50 in [10] is not above 5 µM.
